Values quoted from earlier work as cited in patent US12268783B2, “Platform drug delivery system utilizing crystal engineering and theanine dissolution” (THEAPRIN PHARMACEUTICALS, INC., priority 2015, dated 2025).

Experiments:
[1] = in humans (so in the source)
[2] = system: cancer cells; conditions: without an increase in DOX-induced side effects
[3] = system: human dopaminergic cell line SH-SY5Y; conditions: SH-SY5Y cultures subjected to rotenone and dieldrin, treated or pre-treated with L-Theanine
[4] = system: APP (Swedish Mutation) transgenic SH-SY5Y cell; conditions: via inhibition of the NMDA receptor pathway
[5] = system: rat brain regions; conditions: rat cerebral cortex, hippocampus and cerebellum
[6] = system: human red blood cells (RBC) exposed to venom or purified venom porin; conditions: RBC exposed to total venom or purified porin

Row | Compound | LD50 toxicity [1] [mg/kg] | effect on antitumor activity of doxorubicin (DOX) [2] | DNA fragmentation and apoptotic cell death [3] | protection against glutamate-induced excitotoxicity [4] | protective effect against aluminum-induced neurotoxicity [5] | potassium efflux from RBC [6]
1 | CCNC(=O)CC[C@H](N)C(=O)O [Theanine, 5-N-ethyl-glutamine] | > 5000 | enhances the antitumor activity of doxorubicin | decreased DNA fragmentation and apoptotic cell death | protects | counteracting the damage inflicted by aluminum | –
2 | zinc gluconate | – | – | – | – | – | inhibited potassium efflux
